Data published in patent US4873265A, “Anti-infective methods and compositions” (priority 1988, dated 1989).
Converted amounts (≈) assume the structure as drawn. Like-named read-outs stand apart in the source and are kept apart here.

Key:
Type in all cases: cell-based
Micrococcus luteous = assay: In vitro zone of inhibition screening, MIC, Micrococcus luteous; details: aqueous solution, seeded Mueller-Hinton agar, 24 hours at 35° C.; for MIC: Micrococcus, read-out: Minimum Inhibitory Concentration, ML
Description: (§1) The 2% solutions listed above were diluted further with sterile water, using serial half-step dilutions. Forty lambda of each were then pipetted onto seeded Mueller-Hinton agar plates. The agar plates were then incubated for 24 hours at 35° C. and zones of inhibition were then recorded. The Minimum Inhibitory Concentration (MIC) was the lowest concentration of the test material which produced a zone of inhibition against the organism.
(§2) Stock cutaneous strains of each organism were grown in Mueller-Hinton broth for 18 hours at 35° C. Plates were seeded with the 18 hour broth culture, allowed to air dry at room temperature (about 10 minutes) and then used for determination of zones of inhibition as outlined above.

Staphylococcus aureus = assay: In vitro zone of inhibition screening, MIC, Staphylococcus aureus; details: aqueous solution, seeded Mueller-Hinton agar, 24 hours at 35° C.; for MIC: Staphylococcus aureus, read-out: Minimum Inhibitory Concentration, SA
Description: as §1, §2

[1] = tested on: Corenybacterium minutissimum; assay: In vitro zone of inhibition screening, MIC, Corenybacterium minutissimum
Description: as §1, §2

Escherichia coli = assay: In vitro zone of inhibition screening, MIC, Escherichia coli; details: for MIC: Escherichia coli
Description: as §1, §2

Pseudomonas aeroginosa = assay: In vitro zone of inhibition screening, MIC, Pseudomonas aeroginosa; details: for MIC: Pseudomonas
Description: as §1, §2

C. albicans = assay: In vitro antimycotic activity, MIC, C. albicans; details: for MIC: Candida albicans
Description: (§3) A laboratory propagated strain of C. albicans, originally isolated from an infected skin lesion of a patient, was grown in Mueller-Hinton broth for 18 hours at 35° C. Plates were then seeded with the broth culture and allowed to air-dry at room temperature (22° C.) for about 10-15 minutes. Forty lambda of the 2% aqueous solutions or of serial half-step dilutions in water were then pipetted onto the seeded Mueller-Hinton agar plates. The plates were then incubated for 24 hours at 35° C. and zones of inhibition were then recorded. The Minimum Inhibitory Concentration (MIC) was the lowest concentration of the test material which produced a zone of inhibition against the organism. The MIC for each test material (antihistamine) is listed in the enclosed table. Table 2 lists the MIC's against C. albicans while Table 3 lists the MIC's against in vitro-grown spores of the human pathogen T. mentagrophytes. This strain was isolated from a human infection and was grown on Sabourand-Dextrose agar for 2 weeks. The spores were collected by flooding the agar plates after the 2 week growth period with a 0.01% solution of Tween-80 (sorbitol ester) and then filtering the Tween solution through gauze mesh to collect the suspension of spores. Sabourand-Dextrose agar plates are then seeded with the spore suspension. After air-drying, 40 lambda of each test solution is pipetted onto the plates and the plates left to incubate for 4 days at 22° C.

[2] = tested on: Spores of T. Mentagrophytes; assay: In vitro antimycotic activity, MIC, spores of T. mentagrophytes; details: for MIC: Trichophyton mentagrophytes, 96 h; for activity against T. mentagrophytes: in vitro, in words
Description: as §3

Cutaneous Bacteria = assay: In vitro zone of inhibition screening, overall (cutaneous bacteria); details: for Rank Order: highest inhibition (rank 1) to lowest (rank 5); for minimum inhibitory concentrations as low as: in vitro antibacterial testing, lowest MIC
Description: as §1, §2

[3] = aqueous solution, seeded Mueller-Hinton agar, 24 hours at 35° C., read-out: Minimum Inhibitory Concentration, CM
[4] = aqueous solution, seeded Mueller-Hinton agar, 24 hours at 35° C., read-out: Minimum Inhibitory Concentration, EC
[5] = aqueous solution, seeded Mueller-Hinton agar, 24 hours at 35° C., read-out: Minimum Inhibitory Concentration, PA
[6] = aqueous solution, Mueller-Hinton agar, 24 hours at 35° C., read-out: MIC, C. albicans
[7] = aqueous solution, Sabourand-Dextrose agar, 4 days at 22° C., read-out: MIC, spores of T. Mentagrophytes
[8] = aqueous solution, Sabourand-Dextrose agar, 4 days at 22° C.
[9] = aqueous solution, seeded Mueller-Hinton agar, 24 hours at 35° C.
[10] = aqueous solution, Mueller-Hinton agar, 24 hours at 35° C.

Compound: CN(C)CCC(c1ccc(Br)cc1)c1ccccn1 (stereo not shown) [Brompheniramine, brompheniramine]
- MIC (Micrococcus luteous): 5000 µg/mL (≈ 15.7 mM)
- MIC (Staphylococcus aureus): 10000 µg/mL (≈ 31.3 mM)
- MIC [1, 3]: 3000 µg/mL (≈ 9.4 mM)
- MIC (Escherichia coli; [4]): 5000 µg/mL (≈ 15.7 mM)
- MIC (Pseudomonas aeroginosa; [5]): 10000 µg/mL (≈ 31.3 mM)
- MIC (C. albicans; [6]): 20000 µg/mL (≈ 62.6 mM)
- MIC [2, 7]: 20000 µg/mL (≈ 62.6 mM)
- Rank Order (Cutaneous Bacteria): 2
- minimum inhibitory concentrations as low as (Cutaneous Bacteria): 0.5-1%

Compound: CN(C)CCC(c1ccc(Cl)cc1)c1ccccn1 (stereo not shown) [Chlorpheniramine, chlorpheniramine]
- MIC (Micrococcus luteous): 5000 µg/mL (≈ 18.2 mM)
- MIC (Staphylococcus aureus): 10000 µg/mL (≈ 36.4 mM)
- MIC [1, 3]: 5000 µg/mL (≈ 18.2 mM)
- MIC (Escherichia coli; [4]): 5000 µg/mL (≈ 18.2 mM)
- MIC (Pseudomonas aeroginosa; [5]): 10000 µg/mL (≈ 36.4 mM)
- MIC (C. albicans; [6]): 20000 µg/mL (≈ 72.8 mM)
- MIC, spores of T. Mentagrophytes [2, 8]: No inhibition
- activity against T. mentagrophytes [2]: ineffective
- Rank Order (Cutaneous Bacteria): 2

Compound: CN(C)CCOC(c1ccccc1)c1ccccc1 [Dimenhydrinate, dimenhydrinate]
- Minimum Inhibitory Concentration, ML (Micrococcus luteous): 10.0 mg/mL
- Minimum Inhibitory Concentration, SA (Staphylococcus aureus): 10.0 mg/mL
- Minimum Inhibitory Concentration, CM [1, 9]: 5.0 mg/mL
- Minimum Inhibitory Concentration, EC (Escherichia coli; [9]): 5.0 mg/mL
- Minimum Inhibitory Concentration, PA (Pseudomonas aeroginosa; [9]): 10.0 mg/mL
- MIC, C. albicans (C. albicans; [10]): 20000 µg/mL (≈ 78.3 mM)
- MIC, spores of T. Mentagrophytes [2, 8]: 20000 µg/mL
- Rank Order (Cutaneous Bacteria): 3
- minimum inhibitory concentrations as low as (Cutaneous Bacteria): 0.5%

Compound: CN(C)CCOC(c1ccccc1)c1ccccc1 [Diphenhydramine, diphenhydramine]
- Minimum Inhibitory Concentration, ML (Micrococcus luteous): 2.5 mg/mL
- Minimum Inhibitory Concentration, SA (Staphylococcus aureus): 2.5 mg/mL
- MIC ([1]; 24 h, read-out: Minimum Inhibitory Concentration, CM, aqueous solution, seeded Mueller-Hinton agar, 24 hours at 35° C.): 2500 µg/mL (≈ 9.79 mM)
- MIC (Escherichia coli; 24 h, read-out: Minimum Inhibitory Concentration, EC, aqueous solution, seeded Mueller-Hinton agar, 24 hours at 35° C.): 2500 µg/mL (≈ 9.79 mM)
- MIC (Pseudomonas aeroginosa; 24 h, read-out: Minimum Inhibitory Concentration, PA, aqueous solution, seeded Mueller-Hinton agar, 24 hours at 35° C.): 5000 µg/mL (≈ 19.6 mM)
- MIC (C. albicans; 24 h, read-out: MIC, C. albicans, aqueous solution, Mueller-Hinton agar, 24 hours at 35° C.): 10000 µg/mL (≈ 39.2 mM)
- MIC ([2]; read-out: MIC, spores of T. Mentagrophytes, aqueous solution, Sabourand-Dextrose agar, 4 days at 22° C.): 10000 µg/mL (≈ 39.2 mM)
- Rank Order (Cutaneous Bacteria): 1
- minimum inhibitory concentrations as low as (Cutaneous Bacteria): 0.25%

Compound: CN(C)CCOC(C)(c1ccccc1)c1ccccn1 (stereo not shown) [Doxylamine]
- MIC, C. albicans (C. albicans; [10]): No inhibition
- MIC, spores of T. Mentagrophytes [2, 8]: No inhibition
- Rank Order (Cutaneous Bacteria): 5

Compound: COc1ccc(CN(CCN(C)C)c2ccccn2)cc1 [Pyrilamine]
- MIC [1, 3]: 10000 µg/mL (≈ 35 mM)
- MIC (Escherichia coli; [4]): 10000 µg/mL (≈ 35 mM)
- MIC, C. albicans (C. albicans; [10]): No inhibition
- MIC [2, 7]: 20000 µg/mL (≈ 70.1 mM)
- activity against T. mentagrophytes [2]: showed activity
- Rank Order (Cutaneous Bacteria): 4

Compound: CN(C)CCN(Cc1ccccc1)c1ccccn1 [Tripelennamine, tripelennamine]
- MIC (Micrococcus luteous): 10000 µg/mL (≈ 39.2 mM)
- MIC (Staphylococcus aureus): 10000 µg/mL (≈ 39.2 mM)
- MIC [1, 3]: 5000 µg/mL (≈ 19.6 mM)
- MIC (Escherichia coli; [4]): 5000 µg/mL (≈ 19.6 mM)
- MIC (Pseudomonas aeroginosa; [5]): 10000 µg/mL (≈ 39.2 mM)
- MIC (C. albicans; [6]): 20000 µg/mL (≈ 78.3 mM)
- MIC [2, 7]: 20000 µg/mL (≈ 78.3 mM)
- Rank Order (Cutaneous Bacteria): 3
- minimum inhibitory concentrations as low as (Cutaneous Bacteria): 0.5-1%

Compound: Cc1ccc(/C(=C\CN2CCCC2)c2ccccn2)cc1 [Triprolidine, triprolidine]
- MIC (Micrococcus luteous): 10000 µg/mL (≈ 35.9 mM)
- MIC (Staphylococcus aureus): 10000 µg/mL (≈ 35.9 mM)
- MIC [1, 3]: 5000 µg/mL (≈ 18 mM)
- MIC (Escherichia coli; [4]): 5000 µg/mL (≈ 18 mM)
- MIC (Pseudomonas aeroginosa; [5]): 10000 µg/mL (≈ 35.9 mM)
- MIC (C. albicans; [6]): 20000 µg/mL (≈ 71.8 mM)
- MIC, spores of T. Mentagrophytes [2, 8]: No inhibition
- activity against T. mentagrophytes [2]: ineffective
- Rank Order (Cutaneous Bacteria): 3
- minimum inhibitory concentrations as low as (Cutaneous Bacteria): 0.5-1%
